Assay results as given in patent publication US7880007B2, “Bicyclic substituted phenyl piperidine modulators of muscarinic receptors” (Vertex Pharmaceuticals Incorporated, priority 2004, dated 2011).

Assays:
Type in all cases: cell-based
[1] = molecular target: T1, M4 muscarinic receptor (Homo sapiens, UniProt P08173); assay: Functional mobilization of intracellular calcium (FLIPR), M4-CHO cells; settings: for Emax: 100% efficacy = maximum response obtained with the Carbachol control; for M4 Activity: M4-CHO cells, calcium mobilization (FLIPR)
T1 construct: expressed in transfected cells; host or cells: CHO (M4-CHO)
T1 sequence (P08173 1-479): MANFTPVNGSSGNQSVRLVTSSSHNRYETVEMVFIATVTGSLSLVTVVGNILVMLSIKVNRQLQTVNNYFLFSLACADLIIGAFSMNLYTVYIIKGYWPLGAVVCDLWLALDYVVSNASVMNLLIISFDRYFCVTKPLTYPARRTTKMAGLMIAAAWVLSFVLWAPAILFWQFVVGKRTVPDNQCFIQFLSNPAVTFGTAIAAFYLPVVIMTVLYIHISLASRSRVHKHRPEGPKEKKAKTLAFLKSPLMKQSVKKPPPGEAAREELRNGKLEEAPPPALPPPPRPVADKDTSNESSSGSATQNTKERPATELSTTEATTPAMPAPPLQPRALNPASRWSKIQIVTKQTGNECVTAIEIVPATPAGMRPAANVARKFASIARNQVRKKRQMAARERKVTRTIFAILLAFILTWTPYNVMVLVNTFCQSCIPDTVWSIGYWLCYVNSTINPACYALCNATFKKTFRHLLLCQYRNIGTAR
Description: (§1) Functional Mobilization of Intracellular Calcium to Determine Muscarinic Receptor Activity:
(§2) CHO cells expressing muscarinic receptors (M1 to M5) are grown as monolayers in tissue culture flasks at 37° C. in a humidified atmosphere containing 5% CO2 and passaged every 3-5 days. The growth media is Dulbecco's modified eagles medium (DMEM, Gibco Cat #12430-054), containing 25 mM Hepes and supplemented with Fetal Bovine Serum (Hyclone, cat #SH30071.03), 0.1 mM of MEM non-essential amino acids (GIBCO, Cat #11140-050), 1 mM MEM Sodium Pyruvate (GIBCO Cat #11360-070) and 100 units/ml of Penicillin G and 100 μg/ml of Streptomycin (GIBCO Cat #15140-122). The recombinant muscarinic receptor cell lines are grown under antibiotic pressure with media containing 25 μg/ml zeocin and 500 μg/ml G418 (M1-CHO), 4 μg/ml puromycin, 50 μg/ml zeocin and 2.5 μg/ml blasticidin (M2 and M4-CHO) or 50 μg/ml zeocin and 4 μg/ml puromycin (M3 and M5-CHO).
(§3) Cells are harvested at 80-90% confluence using Versene (GIBCO Cat #15040-066), collected by centrifugation and seeded 18-24 hrs prior to running the calcium assay at a density of 5,000-10,000 cells/well in […], clear-bottomed 384-well plates (BD Biocoat, poly-D-lysine, Cat #356663). The day of the experiment, the cells are washed with a plate washer (Bioteck Instruments, ELX 405) using bath 1 buffer (140-mM NaCl, 4.5-mM KCl, 2-mM CaCl2, 1-mM MgCl2, 10-mM Hepes-Na, 10-mM Glucose, pH 7.4, with NaOH) containing 1 mM Probenecid. Next, the calcium dye Fluo-3 (25 μl/well of Fluo-3 AM at 4 μM, Molecular Probes F-1241, in Bath 1 buffer containing 1 mM Probenecid) is added to the 25 μl of Bath 1 remaining in each well after the plate wash and the dye is loaded at 37° C. in the tissue culture incubator for 60-90 min. The fluorescent dye is removed using the plate washer with Bath 1 containing 1 mM Probenecid, leaving 25 μl/well of this solution after the wash. Alternatively, cells can be loaded with the calcium indicator from Molecular Devices (Calcium 3 Assay Reagents, Cat #R7181) adding 5 μl of a 5× solution dye in Bath 1 containing 1 mM Probenecid (10 ml per dye flask cat #R7182 to generate a solution 20×) to 20 μl of the same buffer. After loading for 60 min, the experiment can be run without having to remove the dye.
(§4) Compounds are prepared at a 2× fold concentration in a 96-well plate (round bottom, Costar Corning cat #3656), by reconstituting the pre-spotted compounds in bath 1 containing 1 mM probenecid. The final concentration DMSO is 0.5%, and the amount of DMSO is normalized across the assay plate. To determine an agonist action of the compounds on muscarinic receptors, the reconstituted compounds are added (25 μl compound/well) to the cell assay plate (containing 25 μl/well) using the multi-channel robotic system of the FLIPR 3 Instrument (Molecular Devices, Sunnyvale, Calif.). To determine a functional inhibitory action of the compounds on muscarinic receptors, the reconstituted compounds are added (25 μl compound/well) to the assay plate and pre-incubated for 15 min prior to adding 25 μl of Carbachol at 3× the EC80 for each muscarinic subtype. Alternatively, the compounds can be co-applied simultaneously with the agonist. In both assay modes, the fluorescence is recorded for 60 sec (excitation wavelength is […] and emission wavelength 540 nm) using the FLIPR 3 instrument.
(§5) The potency, efficacy and selectivity of the muscarinic compounds were evaluated by screening the compound activity across the whole family (M1 to M5 cells). Compounds were also screened for activity on other proteins such as other GPCRs and ion channels to determine selectivity on M4 receptors.
(§6) Examples of activities and efficacies of the muscarinic compounds of formulae (I, Ia, Ib, and II) on modulating M1, M2, M3 and M4 receptors are shown below in Table 3. […]

[2] = molecular target: T2, M1 muscarinic receptor (Homo sapiens, UniProt P11229); assay: Functional mobilization of intracellular calcium (FLIPR), M1-CHO cells; settings: for Emax: 100% efficacy = maximum response obtained with the Carbachol control; for M1 Activity: M1-CHO cells, calcium mobilization (FLIPR)
T2 construct: expressed in transfected cells; host or cells: CHO (M1-CHO)
T2 sequence (P11229 1-460): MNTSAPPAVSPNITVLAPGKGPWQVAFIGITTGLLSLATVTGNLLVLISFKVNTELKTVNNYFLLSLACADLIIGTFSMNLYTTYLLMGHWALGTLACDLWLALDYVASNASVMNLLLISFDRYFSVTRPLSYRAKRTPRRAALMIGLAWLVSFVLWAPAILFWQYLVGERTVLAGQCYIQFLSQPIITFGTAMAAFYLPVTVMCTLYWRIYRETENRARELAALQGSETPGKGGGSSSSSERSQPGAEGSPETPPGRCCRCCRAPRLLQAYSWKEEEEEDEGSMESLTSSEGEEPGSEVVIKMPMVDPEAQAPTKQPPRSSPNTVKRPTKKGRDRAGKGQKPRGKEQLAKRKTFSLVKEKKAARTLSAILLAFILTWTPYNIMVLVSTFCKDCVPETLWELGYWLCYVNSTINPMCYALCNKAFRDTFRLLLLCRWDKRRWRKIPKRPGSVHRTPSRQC
Description: as §1, §2, §3, §4, §5, §6

[3] = molecular target: T3, M2 muscarinic receptor (Homo sapiens, UniProt P08172); assay: Functional mobilization of intracellular calcium (FLIPR), M2-CHO cells; settings: for Emax: 100% efficacy = maximum response obtained with the Carbachol control; for M2 Activity: M2-CHO cells, calcium mobilization (FLIPR)
T3 construct: expressed in transfected cells; host or cells: CHO (M2-CHO)
T3 sequence (P08172 1-466): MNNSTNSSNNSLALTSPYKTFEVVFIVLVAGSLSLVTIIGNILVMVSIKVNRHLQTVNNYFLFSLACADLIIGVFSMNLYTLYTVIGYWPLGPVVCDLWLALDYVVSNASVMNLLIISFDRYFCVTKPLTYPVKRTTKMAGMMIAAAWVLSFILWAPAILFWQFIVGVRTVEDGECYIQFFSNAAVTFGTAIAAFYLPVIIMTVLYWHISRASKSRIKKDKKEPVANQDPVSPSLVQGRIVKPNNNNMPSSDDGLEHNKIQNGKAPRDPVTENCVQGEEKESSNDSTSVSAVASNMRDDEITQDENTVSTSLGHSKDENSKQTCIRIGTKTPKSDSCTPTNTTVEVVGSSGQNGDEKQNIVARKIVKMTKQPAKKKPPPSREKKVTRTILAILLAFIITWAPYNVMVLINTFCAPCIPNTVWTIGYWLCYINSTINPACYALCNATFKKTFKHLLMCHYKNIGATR
Description: as §1, §2, §3, §4, §5, §6

## COc1ccc(Cl)cc1C1(O)CCN(C2CCC3CCC2C3)CC1 (stereo not drawn) [Compound 228]
[1]
  Emax: 25 to 100%
  M4 Activity: ++ (activity was measured to be from 1.0 μM to 5.0 μM)
[2]
  Emax: < 25%
  M1 Activity: + (activity was measured to be greater than 5.0 μM)
[3]
  Emax: < 25%
  M2 Activity: + (activity was measured to be greater than 5.0 μM)

## COc1ccccc1C1(C#N)CCN(C2CCC3CCC2C3)CC1 (stereo not drawn) [Compound 240]
[1]
  Emax: 25 to 100%
  M4 Activity: +++ (activity was measured to be less than 1.0 μM)
[2]
  Emax: 25 to 100%
  M1 Activity: ++ (activity was measured to be from 1.0 μM to 5.0 μM)
[3]
  Emax: 25 to 100%
  M2 Activity: ++ (activity was measured to be from 1.0 μM to 5.0 μM)

## COc1ccc(C2CCN(C3C[C@H]4CC[C@H](C3)C4)CC2)c(C)c1 (stereo partly drawn) [Compound 244]
[1]
  Emax: < 25%
  M4 Activity: + (activity was measured to be greater than 5.0 μM)
[2]
  Emax: < 25%
  M1 Activity: + (activity was measured to be greater than 5.0 μM)
[3]
  Emax: < 25%
  M2 Activity: + (activity was measured to be greater than 5.0 μM)

## CCOC(=O)N1CCC(N2CCC(C#N)(c3ccccc3OC)CC2)CC1 [Compound 245, ethyl 4-cyano-4-(2-methoxyphenyl)-1,4′-bipiperidine-1′-carboxylate]
[1]
  Emax: 25 to 100%
  M4 Activity: +++ (activity was measured to be less than 1.0 μM)
[2]
  Emax: 25 to 100%
  M1 Activity: +++ (activity was measured to be less than 1.0 μM)
[3]
  Emax: < 25%
  M2 Activity: + (activity was measured to be greater than 5.0 μM)

## COc1ccccc1C1(C#N)CCN(C2CCCCCC2)CC1 [Compound 279]
[1]
  Emax: 25 to 100%
  M4 Activity: ++ (activity was measured to be from 1.0 μM to 5.0 μM)
[2]
  Emax: < 25%
  M1 Activity: ++ (activity was measured to be from 1.0 μM to 5.0 μM)
[3]
  Emax: < 25%
  M2 Activity: + (activity was measured to be greater than 5.0 μM)

## COc1ccc(Cl)cc1C1(OC)CCN(C[C@@H]2C[C@H]3C=C[C@H]2C3)CC1 [Compound 286]
[1]
  Emax: 25 to 100%
  M4 Activity: +++ (activity was measured to be less than 1.0 μM)
[2]
  Emax: 25 to 100%
  M1 Activity: + (activity was measured to be greater than 5.0 μM)
[3]
  Emax: < 25%
  M2 Activity: + (activity was measured to be greater than 5.0 μM)

## COc1ccc(Cl)cc1C1(OC)CCN(C2CC3CCC(C3)C2)CC1 (stereo not drawn) [Compound 288]
[1]
  Emax: 25 to 100%
  M4 Activity: +++ (activity was measured to be less than 1.0 μM)
[2]
  Emax: 25 to 100%
  M1 Activity: ++ (activity was measured to be from 1.0 μM to 5.0 μM)
[3]
  Emax: < 25%
  M2 Activity: + (activity was measured to be greater than 5.0 μM)

## CCCC1CCC(N2CCC(c3cc(Cl)ccc3OC)CC2)CC1 (stereo not drawn) [Compound 293]
[1]
  Emax: 25 to 100%
  M4 Activity: ++ (activity was measured to be from 1.0 μM to 5.0 μM)
[2]
  Emax: 25 to 100%
  M1 Activity: ++ (activity was measured to be from 1.0 μM to 5.0 μM)
[3]
  Emax: 25 to 100%
  M2 Activity: ++ (activity was measured to be from 1.0 μM to 5.0 μM)

## COc1ccc(Cl)cc1C1(O)CCN(C2CCOCC2)CC1 [Compound 304]
[1]
  Emax: 25 to 100%
  M4 Activity: + (activity was measured to be greater than 5.0 μM)
[2]
  Emax: < 25%
  M1 Activity: + (activity was measured to be greater than 5.0 μM)
[3]
  Emax: < 25%
  M2 Activity: + (activity was measured to be greater than 5.0 μM)

## COc1ccc(Cl)cc1C1(OC)CCN(C2CC3CCC2C3)CC1 (stereo not drawn) [Compound 308]
[1]
  Emax: 25 to 100%
  M4 Activity: ++ (activity was measured to be from 1.0 μM to 5.0 μM)
[2]
  Emax: < 25%
  M1 Activity: + (activity was measured to be greater than 5.0 μM)
[3]
  Emax: < 25%
  M2 Activity: + (activity was measured to be greater than 5.0 μM)

## COc1ccccc1C1CCN(C2CC3CCC2O3)CC1 (stereo not drawn) [Compound 312]
[1]
  Emax: < 25%
  M4 Activity: + (activity was measured to be greater than 5.0 μM)
[2]
  Emax: < 25%
  M1 Activity: + (activity was measured to be greater than 5.0 μM)
[3]
  Emax: < 25%
  M2 Activity: + (activity was measured to be greater than 5.0 μM)

## Cc1ccc(Cl)cc1C1CCN(CC2C[C@H]3CC[C@H]2C3)CC1 (stereo partly drawn) [Compound 315]
[1]
  Emax: 25 to 100%
  M4 Activity: +++ (activity was measured to be less than 1.0 μM)
[2]
  Emax: 25 to 100%
  M1 Activity: + (activity was measured to be greater than 5.0 μM)
[3]
  Emax: 25 to 100%
  M2 Activity: + (activity was measured to be greater than 5.0 μM)

## CCCC1CCC(N2CCC(OC)(c3cc(Cl)ccc3OC)CC2)CC1 (stereo not drawn) [Compound 316]
[1]
  Emax: 25 to 100%
  M4 Activity: ++ (activity was measured to be from 1.0 μM to 5.0 μM)
[2]
  Emax: 25 to 100%
  M1 Activity: ++ (activity was measured to be from 1.0 μM to 5.0 μM)
[3]
  Emax: < 25%
  M2 Activity: + (activity was measured to be greater than 5.0 μM)
